Reference: patent US12435074B2, “Physics-driven discovery of novel small therapeutic compounds for use as a BCL-2 inhibitor” (BAHCESEHIR UNIVERSITESI, priority 2020, dated 2025)

Tested on: HCT-116 colon cancer cell line
Test: MTT cell proliferation assay on HCT-116 cells
Assay type: cell-based
Protocol: For cell culture experiments various cancer cell lines, HCT-116 colon cancer, U87-MG glial tumor, MCF7 breast cancer cell lines were used. Cells were seeded with high glucose DMEM medium (Biosera) supplemented with 10% FBS (Gibco) and 1X penicillin/streptomycin (Multicell). Twenty-four hours prior to molecule treatment, 10,000 cells were seeded into each well of 24-well cell culture plates. Molecules were used by preparing 4 mM stock solution in DMSO (Amresco). For molecule treatment, molecule stock solutions were diluted in DMEM with 10% FBS and added onto cells in each corresponding well. Final concentration of vehicle DMSO was 2% at maximum. […] We calculated the number of cells to be seeded to make sure that none of the cells reaches more than 60% confluency during the treatment period, as higher plate confluency levels would slow down cell proliferation independently from the molecule treatment.
Values of half-maximal inhibitory concentration were (IC50) determined by MTT cell proliferation assays. […] 570 nm absorbance values were recorded and IC50 values were calculated by dose response—inhibition curves and nonlinear regression analysis on GraphPad Prism 8 software. […] Following the initial incubation day, molecules were added and after incubation with MTT at 37° C. for 4 hours, formazan was solubilized with DMSO (Sigma-Aldrich, St. Louis, USA) and absorbance was measured at 570 nm. […]

IC50 (Homo sapiens, 72 h, single treatment, three days results, 570 nm absorbance, read-out: IC50 (half-maximal inhibitory concentration)): 130 µM
Compound: CCC(C)(C)C1CCc2c(sc(NC(=O)c3cc(-c4ccc(Cl)s4)nc4ccccc34)c2C(N)=O)C1 (centres unmarked) [compound of formula I]
proliferation of HCT-116 cells compared to vehicle group (FIG. 1, versus vehicle (max 2% DMSO)): reduced proliferation and apoptotic cell structures
